Measured values as given in PubChem BioAssay AID330 (DTP/NCI, 2004).
Values joined by “and” are separate entries in the source; they are usually repeats but may differ in a detail not shown here. Equal entries are not always repeated. Inconclusive results and toxic doses are left out. Peptide text beside a SMILES is read from it. * marks the point of attachment. For = O=C*

System: P388 leukemia ip, CD2F1 mice, survival T/C
Test: NCI In Vivo Anticancer Drug Screen. Data for tumor model P388 Leukemia (intraperitoneal) in CD2F1 (CDF1) mice
Details: endpoint: median survival time, higher = longer survival
Summary of the method: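 Mice carrying the transplanted tumor received test compound or vehicle. Survival was recorded in each group, and the value is the treated-group measurement divided by that of the vehicle-treated control group.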

[1] = dose: 100.0 mg/kg/injection, schedule: Q04DX002 (ip), vehicle: saline with Tween-80
[2] = dose: 60.0 mg/kg/injection, schedule: Q01DX005 (ip), vehicle: saline with Tween-80
[3] = dose: 120.0 mg/kg/injection, schedule: Q01DX005 (ip), vehicle: saline with Tween-80
[4] = dose: 240.0 mg/kg/injection, schedule: Q01DX005 (ip), vehicle: saline with Tween-80
[5] = dose: 50.0 mg/kg/injection, schedule: Q01DX005 (ip), vehicle: saline with Tween-80
[6] = dose: 100.0 mg/kg/injection, schedule: Q01DX005 (ip), vehicle: saline with Tween-80
[7] = dose: 200.0 mg/kg/injection, schedule: Q01DX005 (ip), vehicle: saline with Tween-80
[8] = dose: 100.0 mg/kg/injection, schedule: Q04DX003 (ip), vehicle: saline with Tween-80
[9] = dose: 200.0 mg/kg/injection, schedule: Q04DX003 (ip), vehicle: saline with Tween-80
[10] = dose: 400.0 mg/kg/injection, schedule: Q04DX003 (ip), vehicle: saline with Tween-80
[11] = dose: 100.0 mg/kg/injection, schedule: Q04DX002 (ip), vehicle: saline
[12] = dose: 200.0 mg/kg/injection, schedule: Q04DX002 (ip), vehicle: saline
[13] = dose: 400.0 mg/kg/injection, schedule: Q04DX002 (ip), vehicle: saline
[14] = dose: 50.0 mg/kg/injection, schedule: Q01DX005 (ip), vehicle: Klucel (hydroxypropylcellulose) (HPC)
[15] = dose: 100.0 mg/kg/injection, schedule: Q01DX005 (ip), vehicle: Klucel (hydroxypropylcellulose) (HPC)
[16] = dose: 200.0 mg/kg/injection, schedule: Q01DX005 (ip), vehicle: Klucel (hydroxypropylcellulose) (HPC)
[17] = dose: 50.0 mg/kg/injection, schedule: Q01DX009 (ip), vehicle: saline
[18] = dose: 100.0 mg/kg/injection, schedule: Q01DX009 (ip), vehicle: saline

## COC(=O)C1=C/C=C\CN(C=O)/C=C\1C(=O)OC
dose: 100.0 mg/kg/injection, schedule: Q01DX001 (ip), vehicle: alcohol
  T/C: 101 % of control
dose: 200.0 mg/kg/injection, schedule: Q01DX001 (ip), vehicle: alcohol
  T/C: 92 % of control
dose: 400.0 mg/kg/injection, schedule: Q01DX001 (ip), vehicle: alcohol
  T/C: 101 % of control

## CCOC(=O)CC(C)=Nc1c(SC)sc(C#N)c1N
[1]
  T/C: 97 % of control
dose: 200.0 mg/kg/injection, schedule: Q04DX002 (ip), vehicle: saline with Tween-80
  T/C: 95 % of control
dose: 400.0 mg/kg/injection, schedule: Q04DX002 (ip), vehicle: saline with Tween-80
  T/C: 91 % of control

## CCOC(=O)C(C(=O)OCC)(C(=O)C(F)(F)C(F)(F)C(F)(F)C(F)(F)C(=O)C(C(=O)OCC)(C(=O)OCC)c1ccccc1)c1ccccc1
[2]
  T/C: 93 % of control
[3]
  T/C: 98 % of control
[4]
  T/C: 89 % of control

## CCC12C=CCN3CC[C@@]4(c5cc([C@@]6(C(=O)OC)C[C@@H]7CN(CCc8c6[nH]c6ccccc86)C[C@](O)(CC)C7)c(OC)cc5N(C)[C@H]4[C@@](O)(C(=O)NCCCCCCCCCCCC(=O)O)[C@@H]1O)C32 (stereo partly drawn)
dose: 11.25 mg/kg/injection, schedule: Q01DX001 (ip), vehicle: other
  T/C: 164 % of control
dose: 11.25 mg/kg/injection, schedule: Q01DX001 (ip), vehicle: saline with Tween-80
  T/C: 153 % of control
dose: 11.25 mg/kg/injection, schedule: Q01DX001 (ip), vehicle: saline
  T/C: 189 % of control
dose: 22.5 mg/kg/injection, schedule: Q01DX001 (ip), vehicle: saline with Tween-80
  T/C: 164 % of control
dose: 45.0 mg/kg/injection, schedule: Q01DX001 (ip), vehicle: saline with Tween-80
  T/C: 182 % of control

## CC1(C)OCC(C2OC3OC(C)(C)OC3C2NN)O1 (stereo not drawn)
[5]
  T/C: 95 % of control
[6]
  T/C: 98 % of control
[7]
  T/C: 100 % of control

## c1ccc(P2CCc3[nH]c4ccccc4c3C2)cc1 (stereo not drawn)
dose: 50.0 mg/kg/injection, schedule: Q04DX003 (ip), vehicle: saline with Tween-80
  T/C: 101 % of control
[8]
  T/C: 105 % of control and 110 % of control
[9]
  T/C: 103 % of control and 120 % of control
[10]
  T/C: 114 % of control

## COc1ccc(NC(=O)C2C(=O)N(c3ccc(OC)cc3)C(=O)/C2=N/NC(N)=S)cc1 (stereo not drawn)
dose: 12.5 mg/kg/injection, schedule: Q01DX005 (ip), vehicle: saline with Tween-80
  T/C: 101 % of control
dose: 25.0 mg/kg/injection, schedule: Q01DX005 (ip), vehicle: saline with Tween-80
  T/C: 100 % of control
[5]
  T/C: 100 % of control and 90 % of control

## O=c1n(-c2ccccc2)c(=O)n2n1C1CC3c4ccccc4C1C2C31CC1 (stereo not drawn)
[5]
  T/C: 104 % of control
[6]
  T/C: 101 % of control
[7]
  T/C: 92 % of control

## COc1ccc(CS(=O)(=O)c2cnc(=O)[nH]c2N)cc1OC
[11]
  T/C: 93 % of control
[12]
  T/C: 101 % of control
[13]
  T/C: 93 % of control

## CN=C(N/N=C(C)\C=N\NC(=NC)N(C)C)N(C)C
[5]
  T/C: 109 % of control
[6]
  T/C: 105 % of control
[7]
  T/C: 105 % of control

## CC1=CC(=O)[C@@H](O)[C@]2(C)[C@H]3[C@@]4(O)OC[C@]35[C@H]([C@@H](C)[C@H]4O)[C@@H](OC(=O)CC(C)C)C(=O)O[C@@H]5C[C@@H]12
dose: 0.5 mg/kg/injection, schedule: Q01DX005 (ip), vehicle: saline + alcohol
  T/C: 104 % of control and 122 % of control
dose: 1.0 mg/kg/injection, schedule: Q01DX005 (ip), vehicle: saline + alcohol
  T/C: 112 % of control

## COc1ccc(C2=NCCc3cc(OC)c(OC)cc32)cc1OC
dose: 6.25 mg/kg/injection, schedule: Q01DX009 (ip), vehicle: water
  T/C: 111 % of control
dose: 12.5 mg/kg/injection, schedule: Q01DX009 (ip), vehicle: water
  T/C: 108 % of control
dose: 25.0 mg/kg/injection, schedule: Q01DX009 (ip), vehicle: water
  T/C: 118 % of control
dose: 50.0 mg/kg/injection, schedule: Q01DX009 (ip), vehicle: water
  T/C: 105 % of control
dose: 100.0 mg/kg/injection, schedule: Q01DX009 (ip), vehicle: water
  T/C: 111 % of control

## Brc1ccc(-c2ccc3nnnn3n2)s1
[14]
  T/C: 91 % of control
[15]
  T/C: 95 % of control
[16]
  T/C: 87 % of control

## CC(C)C(NC=O)C(=O)NCC(=O)NC(CO)C(=O)NC(CCC(=O)O)C(=O)O (stereo not drawn) (For-VGSE-OH; configuration not given here)
dose: 9.0 mg/kg/injection, schedule: Q01DX005 (ip), vehicle: water
  T/C: 110 % of control
dose: 18.0 mg/kg/injection, schedule: Q01DX005 (ip), vehicle: water
  T/C: 101 % of control
dose: 36.0 mg/kg/injection, schedule: Q01DX005 (ip), vehicle: water
  T/C: 110 % of control
dose: 72.0 mg/kg/injection, schedule: Q01DX005 (ip), vehicle: water
  T/C: 110 % of control
dose: 144.0 mg/kg/injection, schedule: Q01DX005 (ip), vehicle: water
  T/C: 106 % of control

## COc1ccccc1N1C(=O)CSC1=Nc1ccccc1
[17]
  T/C: 98 % of control
[18]
  T/C: 96 % of control
dose: 200.0 mg/kg/injection, schedule: Q01DX009 (ip), vehicle: saline
  T/C: 100 % of control

## CN=C(N)N/N=C(\c1ccc(F)cc1)c1ccccc1Cl
dose: 25.0 mg/kg/injection, schedule: Q04DX002 (ip), vehicle: saline with Tween-80
  T/C: 101 % of control
dose: 50.0 mg/kg/injection, schedule: Q04DX002 (ip), vehicle: saline with Tween-80
  T/C: 100 % of control
[1]
  T/C: 98 % of control

## Cc1ccc(S(=O)(=O)N/N=C2\C(=N\NS(=O)(=O)c3ccc(C)cc3)C3c4ccccc4C2c2ccccc23)cc1
[2]
  T/C: 105 % of control
[3]
  T/C: 96 % of control
[4]
  T/C: 95 % of control

## CCOP(=O)(OCC)OC(C)CC1CO1 (stereo not drawn)
[11]
  T/C: 100 % of control
[12]
  T/C: 98 % of control
[13]
  T/C: 103 % of control

## Cn1c(=O)oc2cc(NC(N)=O)c(Cl)cc21
[14]
  T/C: 94 % of control
[15]
  T/C: 90 % of control
[16]
  T/C: 86 % of control

## Nc1nc(-c2ccccc2N=NN2CCCCC2)nc2ccccc12
dose: 12.5 mg/kg/injection, schedule: Q01DX009 (ip), vehicle: Klucel (hydroxypropylcellulose) (HPC)
  T/C: 111 % of control
dose: 25.0 mg/kg/injection, schedule: Q01DX009 (ip), vehicle: Klucel (hydroxypropylcellulose) (HPC)
  T/C: 102 % of control
dose: 50.0 mg/kg/injection, schedule: Q01DX009 (ip), vehicle: Klucel (hydroxypropylcellulose) (HPC)
  T/C: 104 % of control
dose: 100.0 mg/kg/injection, schedule: Q01DX009 (ip), vehicle: Klucel (hydroxypropylcellulose) (HPC)
  T/C: 110 % of control and 113 % of control

## CS[C@@H]1C[C@H]2[C@@H]3CCC4=CC(=O)CC[C@]4(C)[C@H]3CC[C@]2(C)[C@H]1C(C)=O
dose: 12.5 mg/kg/injection, schedule: Q01DX009 (ip), vehicle: saline with Tween-80
  T/C: 90 % of control
dose: 25.0 mg/kg/injection, schedule: Q01DX009 (ip), vehicle: saline with Tween-80
  T/C: 90 % of control
dose: 50.0 mg/kg/injection, schedule: Q01DX009 (ip), vehicle: saline with Tween-80
  T/C: 100 % of control
[8]
  T/C: 100 % of control
[9]
  T/C: 90 % of control
[10]
  T/C: 100 % of control

## COc1ccc(N=Nc2c(-c3ccccc3)nn(C(=S)S)c2-c2ccccc2)cc1
[5]
  T/C: 93 % of control
[6]
  T/C: 96 % of control
[7]
  T/C: 93 % of control

## CCCCCCCCCCCC(=O)OCCS(=O)(=O)CCOC(=O)CCCCCCCCCCC
dose: 100.0 mg/kg/injection, schedule: Q04DX003 (ip), vehicle: Klucel (hydroxypropylcellulose) (HPC)
  T/C: 104 % of control
dose: 200.0 mg/kg/injection, schedule: Q04DX003 (ip), vehicle: Klucel (hydroxypropylcellulose) (HPC)
  T/C: 103 % of control
dose: 400.0 mg/kg/injection, schedule: Q04DX003 (ip), vehicle: Klucel (hydroxypropylcellulose) (HPC)
  T/C: 99 % of control

## COc1ccc(OC)c(NC(=S)NC(=O)c2cccc(Br)c2)c1
[2]
  T/C: 95 % of control
[3]
  T/C: 92 % of control
[4]
  T/C: 89 % of control

## ClC(Cl)=Nc1ccc(Cl)cc1Cl
[17]
  T/C: 100 % of control
[18]
  T/C: 89 % of control

## CC(C(/C=N/NC(N)=S)=N/NC(N)=S)N1C(=O)c2ccccc2C1=O (stereo not drawn)
[2]
  T/C: 97 % of control
[3]
  T/C: 94 % of control
[4]
  T/C: 88 % of control

## O=C(Nc1cc(-c2ccccc2)[nH]n1)c1ccccc1
[2]
  T/C: 103 % of control
[3]
  T/C: 106 % of control
[4]
  T/C: 100 % of control

## COc1ccc2nc(C#N)ccc2c1
[5]
  T/C: 92 % of control
[6]
  T/C: 90 % of control
[7]
  T/C: 95 % of control
